Paper PMC6594753, “Cystic fibrosis drug ivacaftor stimulates CFTR channels at picomolar concentrations” (eLife, 2019)
Values joined by “and” are separate entries in the source; they are usually repeats but may differ in a detail not shown here. Equal entries are not always repeated. Where two headings read alike, the source gives them in different places.

Legend:
[1] = Octanol/water distribution coefficient from solubilities; assay type: physicochemical; details: pH=7.1
[2] = parameters: method as in FDA report by Vertex Pharmaceuticals Incorporated; details: patients, oral, ref FDA report by Vertex Pharmaceuticals Incorporated, cited from earlier work
WT CFTR = biological target: T1, WT CFTR (Homo sapiens, UniProt P13569); assay: Ensemble fitting of gating models (Schemes 3 and 4) to on-off current time courses; assay type: biochemical; details: for EC50 / Kd: calculated from fit parameters; for kin: constrained kin/kout = 62580; for Kd: read-out: Kd;mem
T1 construct: expressed in transfected cells; host or cells: Xenopus laevis oocytes injected with cRNA transcribed from pGEMHE-CFTR
Description: We next attempted to interpret the observed complex kinetics of the drug effects in terms of various molecular models (Figure 5a–d), by performing global fits of each model (Figure 5f, colored lines) to the ensemble of four experimentally observed current time courses: activation and deactivation upon addition and removal of 0.01x saturated (Figure 5f, gray trace) and 1x saturated (Figure 5f, black trace) Vx-770.
An alternative mechanism that could explain delayed activation by the drug is the presence of multiple drug binding sites, all of which must be occupied to switch the channel to a high open probability state. […] We therefore evaluated a simplistic model which postulates independent drug binding to two sites, with identical affinities, but a substantial change in open probability (from Po;bas to Po;max) only for diliganded channels (Scheme 3, Figure 5c).
Finally, assuming a two-compartment membrane and two drug-binding sites, both accessible from the outer leaflet (Scheme 4, Figure 5d), afforded a further small improvement (Figure 5f, red fit lines) relative to Scheme 3, albeit at the expense of an extra free parameter (Figure 5e, right).
The dynamic equations that describe the kinetic models depicted in Figure 5 are as follows:
• dx1(t)/dt = kin⋅Vc – 2⋅kout⋅x1(t) – kon'⋅(2⋅x2(t)+x3(t))⋅x1(t) + koff⋅(2⋅(Ct–x2(t)–x3(t))+x3(t)) • dx2(t)/dt = – 2⋅kon'⋅x1(t)⋅x2(t) + koff⋅x3(t) • dx3(t)/dt = 2⋅kon'⋅x1(t)⋅x2(t) + 2⋅koff⋅(Ct–x2(t)–x3(t)) – (koff +kon'⋅x1(t))⋅x3(t)
(§1) where x1(t) is the concentration of free Vx-770 in the membrane, x2(t) is the concentration of unliganded CFTR channels in the membrane, x3(t) is the concentration of monoliganded CFTR channels in the membrane, Ct is the total concentration of CFTR channels in the membrane, and Vc is the concentration of Vx-770 in the cytosol.
• dx1(t)/dt = kin⋅Vc – (kout +kflip)⋅x1(t) + kflip⋅x2(t) • dx2(t)/dt = kflip⋅x1(t) – (kout +kflip)⋅x2(t) – kon'⋅(2⋅x3(t)+x4(t))⋅x2(t) + koff⋅(2⋅(Ct–x3(t)–x4(t))+x4(t)) • dx3(t)/dt = – 2⋅kon'⋅x2(t)⋅x3(t) + koff⋅x4(t) • dx4(t)/dt = 2⋅kon'⋅x2(t)⋅x3(t) + 2⋅koff⋅(Ct–x3(t)–x4(t)) – (koff +kon'⋅x2(t))⋅x4(t)
as §1, with “x1(t) is the concentration of Vx-770 in the inner membrane leaflet, x2(t)” for “x1(t)”, “outer membrane leaflet, x3(t)” for “membrane, x2(t)”, “outer membrane leaflet, x4(t)” for “membrane, x3(t)”, “outer membrane leaflet,” for “membrane,”
To calculate the value of Ct, the total number of channels in the patch (N) was estimated by assuming Po;bas=0.16 for prephosphorylated channels in ATP (cf., Figure 2c). For Schemes 1 and 3 the volume of the membrane patch was taken as 10^−16 liter (assuming a macroscopic patch surface area of ~4 μm^2 increased by ~5 fold at a microscopic level due to the presence of microvilli ([Dascal, 1987]), and a membrane thickness of ~5 nm), and for Schemes 2 and 4 the volume of the outer membrane leaflet was taken as 5⋅10^−17 liter. Ct was then calculated as N/NA divided by the relevant volume (NA, Avogadro's number).
For the ensemble fitting, all experimental current traces were normalized to their steady-state values observed prior to exposure to Vx-770. Predicted normalized on- and off- current time courses for each model were calculated from the above dynamic equations by solving for the time-dependent evolution of the vector x, using a modified Euler's method ([Press, 1992]). For the on- time courses the initial values for all xi were set to zero, for the off- time courses the final x vector of the preceding on- time course served as the initial vector while Vc was set to zero. […]

[3] = Scheme 3, average of global fits to three pairs of time courses
[4] = Scheme 4, average of global fits to three pairs of time courses

T1 sequence (P13569 whole entry): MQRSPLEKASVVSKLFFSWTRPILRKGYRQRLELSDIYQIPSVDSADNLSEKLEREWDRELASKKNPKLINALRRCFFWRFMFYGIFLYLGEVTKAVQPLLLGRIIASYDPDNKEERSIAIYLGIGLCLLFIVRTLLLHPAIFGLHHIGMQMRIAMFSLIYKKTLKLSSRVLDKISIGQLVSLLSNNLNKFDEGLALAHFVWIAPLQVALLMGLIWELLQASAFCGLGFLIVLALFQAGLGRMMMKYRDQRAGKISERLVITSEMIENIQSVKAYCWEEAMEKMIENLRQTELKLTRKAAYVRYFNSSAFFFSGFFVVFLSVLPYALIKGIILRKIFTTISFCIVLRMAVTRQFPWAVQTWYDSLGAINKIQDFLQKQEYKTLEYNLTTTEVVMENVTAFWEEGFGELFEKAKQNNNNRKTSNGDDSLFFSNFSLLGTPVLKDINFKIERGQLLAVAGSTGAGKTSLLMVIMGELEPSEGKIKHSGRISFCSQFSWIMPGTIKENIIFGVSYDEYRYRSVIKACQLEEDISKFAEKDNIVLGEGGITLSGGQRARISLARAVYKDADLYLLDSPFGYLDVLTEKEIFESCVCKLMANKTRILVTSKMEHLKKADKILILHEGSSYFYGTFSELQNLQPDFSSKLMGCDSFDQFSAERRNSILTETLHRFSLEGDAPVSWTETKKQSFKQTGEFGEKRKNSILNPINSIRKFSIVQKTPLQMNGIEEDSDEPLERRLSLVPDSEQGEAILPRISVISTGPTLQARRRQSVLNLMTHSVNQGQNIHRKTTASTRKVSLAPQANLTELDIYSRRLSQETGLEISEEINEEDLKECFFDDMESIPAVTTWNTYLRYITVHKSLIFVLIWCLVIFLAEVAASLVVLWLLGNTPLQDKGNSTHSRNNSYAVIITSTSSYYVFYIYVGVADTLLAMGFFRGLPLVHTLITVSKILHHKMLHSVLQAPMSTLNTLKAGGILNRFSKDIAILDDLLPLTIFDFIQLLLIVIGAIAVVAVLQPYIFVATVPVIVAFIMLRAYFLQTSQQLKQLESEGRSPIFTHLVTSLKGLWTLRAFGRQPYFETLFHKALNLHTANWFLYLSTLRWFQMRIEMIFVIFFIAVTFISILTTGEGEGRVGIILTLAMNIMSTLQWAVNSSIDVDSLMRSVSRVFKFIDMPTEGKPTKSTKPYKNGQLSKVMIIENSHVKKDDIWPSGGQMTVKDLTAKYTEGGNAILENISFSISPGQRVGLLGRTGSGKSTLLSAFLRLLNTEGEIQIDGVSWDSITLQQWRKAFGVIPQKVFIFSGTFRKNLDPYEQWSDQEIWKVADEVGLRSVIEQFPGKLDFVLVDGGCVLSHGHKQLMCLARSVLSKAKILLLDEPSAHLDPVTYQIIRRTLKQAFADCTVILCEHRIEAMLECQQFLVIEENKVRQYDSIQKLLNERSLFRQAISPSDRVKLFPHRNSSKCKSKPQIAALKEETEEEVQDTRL

logD ([1]; octanol/water): 4.8
octanol/water distribution coefficient Doct/wat [1]: 62580 and ~ 60000
EC50 (WT CFTR; Scheme 3, Figure 5f data set, read-out: K0.5;aq): 0.00074 µM
kin (WT CFTR; Scheme 3, average (mean ± S.E.M.) of global fits to three pairs of time courses): 4034 ± 464 s⁻¹
Po;max/Po;bas (WT CFTR; [3]): 3.935 ± 0.001
koff (WT CFTR; [3]): 0.00745 ± 0.000871 s⁻¹
kon (WT CFTR; [3]): 870 ± 104 M⁻¹ s⁻¹
kout (WT CFTR; [3]): 0.06446 ± 0.00742 s⁻¹
EC50 (WT CFTR; Scheme 3, average of three fits, read-out: K0.5;aq): 0.000675 ± 8.95e-05 µM
EC50 (WT CFTR; Scheme 3, average of three fits, read-out: K0.5;mem): 21.1 ± 2.8 µM
Kd (WT CFTR; Scheme 3, average of three fits): 8.75 ± 1.16 µM
koff (WT CFTR; Scheme 3, global fit to data set of Figure 5f): 0.00651 s⁻¹
EC50 (WT CFTR; Scheme 4, Figure 5f data set, read-out: K0.5;aq): 0.00072 µM
kin (WT CFTR; Scheme 4, average (mean ± S.E.M.) of global fits to three pairs of time courses): 9794 ± 531 s⁻¹
Po;max/Po;bas (WT CFTR; [4]): 3.996 ± 0.007
kflip (WT CFTR; [4]): 0.04408 ± 0.00583 s⁻¹
koff (WT CFTR; [4]): 0.01075 ± 9e-05 s⁻¹
kon (WT CFTR; [4]): 3700 ± 627 M⁻¹ s⁻¹
kout (WT CFTR; [4]): 0.1565 ± 0.0085 s⁻¹
EC50 (WT CFTR; Scheme 4, average of three fits, read-out: K0.5;aq): 0.000669 ± 9.55e-05 µM
EC50 (WT CFTR; Scheme 4, average of three fits, read-out: K0.5;mem): 7.5 ± 1.46 µM
Kd (WT CFTR; Scheme 4, average of three fits): 3.11 ± 0.605 µM
koff (WT CFTR; Scheme 4, global fit to data set of Figure 5f): 0.0106 s⁻¹
Structure (SMILES): CC(C)(C)c1cc(C(C)(C)C)c(NC(=O)c2c[nH]c3ccccc3c2=O)cc1O [Vx-770, ivacaftor]
peak plasma concentration ([2]; twice daily 150 mg (therapeutic)): ~ 4 μM
peak plasma concentration ([2]; twice daily 450 mg (supratherapeutic)): > 10 µM
